These are literature values, as cited in patent publication US6641838B2, “Effervescent drug delivery system for oral administration” (Cima Labs Inc., priority 1998, dated 2003).

For the first data set the following is noted: in vivo, po.
On to `Oc1ccc2c3c1O[C@H]1[C@@H](O)CC[C@@]4(O)[C@@H](C2)N(CC2CCC2)CC[C@]314` [Nalbuphine], for which the “Bioavailability (%)” value is given as 25 ± 16%; the average bioavailability entry is recorded as “approximately 17%”; the “range of bioavailability (inter- and intrasubject variability)” value is 6-40%.

Take Methyldopa: the “Bioavailability (%)” value is on record as 25 ± 16% and the average bioavailability was 25%.

For the molecule `CN(C)C(=O)Oc1ccc[n+](C)c1` [Pyridostigmine], the “Bioavailability (%)” value was 14 ± 3%. Consider `CNC1(c2ccccc2Cl)CCCCC1=O` (stereo not shown) [Ketamine], for which the “Bioavailability (%)” value is given as 20 ± 7%.

Staying with this data set, now noted: orally administered drug, conventional dosage forms; examples of drugs with poor bioavailability.
Take `Nc1ccn([C@@H]2O[C@H](CO)[C@@H](O)[C@@H]2O)c(=O)n1` [Cytarabine]: the “Bioavailability (%)” value is 20%. `CN(C)CCC=C1c2ccccc2COc2ccccc21` [Doxepin]: the “Bioavailability (%)” value is recorded as 27 ± 10%. As to `Nc1nc2c(ncn2COCCO)c(=O)[nH]1` [Acyclovir], the “Bioavailability (%)” value was 15 − 30%. Consider `Cc1cc2nc3c(=O)[nH]c(=O)nc-3n(C[C@H](O)[C@H](O)[C@H](O)CO)c2cc1C` [Riboflavin], for which the “Bioavailability (%)” value is given as 11%. Take `NNc1nncc2ccccc12` [Hydralazine]: the “Bioavailability (%)” value is listed as 16 − 35%.

Regarding `CC(=O)CCCCn1c(=O)c2c(ncn2C)n(C)c1=O` [Pentoxifylline], the “Bioavailability (%)” value is reported as 19 ± 13%.

For the molecule `CC(=O)OC[C@H]1O[C@@H]([S-])[C@H](OC(C)=O)[C@@H](OC(C)=O)[C@@H]1OC(C)=O.CCP(CC)CC.[Au+]` [Auranofin], the “Bioavailability (%)” value is recorded as 15 − 25%. Take `CC[N+](C)(C)Cc1ccccc1Br` [Bretylium]: the “Bioavailability (%)” value is 23 ± 9%. Consider `C=CCN1CC[C@]23c4c5ccc(O)c4O[C@H]2C(=O)CC[C@@]3(O)[C@H]1C5` [Naloxone], for which the “Bioavailability (%)” value was 2%.

For `CC(CCc1ccccc1)NCC(O)c1ccc(O)c(C(N)=O)c1` (stereo not shown) [Labetalol], the “Bioavailability (%)” value is 18 ± 5%.

Consider `CC(C)(C)NCC(O)c1cc(O)cc(O)c1` (stereo not shown) [Terbutaline], for which the “Bioavailability (%)” value is reported as 14 ± 2%. Take `Sc1ncnc2nc[nH]c12` [Mercaptopurine]: the “Bioavailability (%)” value is listed as 12 ± 7%.
